22 molecules from patent US11535607B2, “Isoindolines as HDAC inhibitors” (Valo Health, Inc., priority 2018, dated 2022) can be followed below.

Each structure is given as a SMILES string. Structures can show the parent of a compound that is named as a salt. Where two headings read alike, the source gives them in different places.

Data set [1] has as its target T1, full-length human HDAC11 (Homo sapiens (Human), UniProt Q96DB2). Put plainly: Probe binding HDAC11 time resolved fluorescence (TRF) assay. As to conditions: Table 2, read-out: HDAC11 IC50 Range. The method, then:
The probe binding HDAC11 assay was performed using a time resolved fluorescence (TRF) assay format. Recombinant N-terminal GST tag full-length human HD AC 11 was expressed and purified from baculovirus in Sf9 insect cells (SignalChem, #H93-30G-1000). […] 4 μL of 2× probe and 2× anti-GST Terbium (Cisbio, #61GSTXLB) was added to assay plates followed by 4 μL of 2×HDAC11.
Data from HD AC 11 Assays were reported as percent inhibition (inh) compared with control wells based on the following equation: % inh=1−((FLU−AveLow)/(AveHigh−AveLow)) where FLU=measured time resolved fluorescence. AveLow=average time resolved fluorescence of no enzyme control (n=32). AveHigh=average time resolved fluorescence of DMSO control (n=32). IC50 values were determined by curve fitting of the standard 4 parameter logistic fitting algorithm included in the Activity Base software package: IDBS XE Designer Model205. Data is fitted using the Levenburg Marquardt algorithm.

Data set [2] has as its target T1, full-length human HDAC11. Kind of data set: HDAC11 deacetylase electrophoretic mobility shift assay (Nanosyn). The data set is classed as biochemical. As to conditions: for HDAC11 potency, in words: comparison with parent or lead compound; for IC50: mobility shift assay. On the procedure: The measurement of HD AC 11 deacetylase activity was performed using an electrophoretic mobility shift assay by Nanosyn (Santa Clara, Calif.). Full length human recombinant HD AC 11 protein was expressed in baculoviral system and purified by affinity chromatography. The enzymatic reactions were assembled in 384 well plates in a total volume of 25 μL in a reaction buffer composing: 100 mM HEPES, pH 7.5, 25 mM KCl, 0.1% bovine serum albumin, 0.01% Triton X-100, 1% DMSO (from compounds), 2 μM of the fluorescently labeled peptide substrate and enzyme. The enzyme was added at a final concentration of 10 nM. The peptide substrate FAM-RHKK(tri-fluor-Ac)—NH2 was used. The compounds were tested at 12 concentrations spaced by 3× dilution intervals. Negative control samples (0%-inhibition in the absence of inhibitor) and positive control samples (100%-inhibition) were assembled in replicates of four in each assay plate. The reactions were incubated at 25° C. and quenched by the addition of 45 μL of termination buffer (100 mM HEPES, pH 7.5, 0.01% Triton X-100, 0.05% SDS).
The terminated assay plates were analyzed on LabChip® 3000 microfluidic electrophoresis instrument (Perkin Elmer/Caliper Life Sciences). The fluorescence intensity of the electrophoretically separated de-acetylated product and substrate peptide was measured. Activity in each sample was determined as the product to sum ratio (PSR): P/(S+P), where P is the peak height of the product peptide and S is the peak height of the substrate peptide. Percent inhibition (Pinh) is determined using the following equation: Pinh=(PSR0%−PSRinh)/(PSR0%−PSR100%)*100, where PSRinh, is the product sum ratio in the presence of inhibitor, PSR0% is the average product sum ration in the absence of inhibitor and PSR100% is the average product sum ratio in 100%-inhibition control samples. The IC50 values of inhibitors were determined by fitting the percent inhibition curves with 4 parameter dose-response model using XLfit 4 software.

Data set [3] is described as follows: In vitro intrinsic clearance after incubation with mouse liver microsomes. It is filed as in vitro ADME. As to conditions: for microsomal stability, in words: comparison. For orientation: Liver microsomes are vesicles of endoplasmic reticulum, rich in cytochrome P450 enzymes.
For a further data set, the target named is HDAC11 (Homo sapiens (Human), UniProt Q96DB2). Put plainly: Lipophilic efficiency (pIC50 HDAC11 - clogD7.4). As to conditions: pIC50 HDAC11 - clogD7.4, Table 5.
Chain of HDAC11 (Q96DB2 whole entry): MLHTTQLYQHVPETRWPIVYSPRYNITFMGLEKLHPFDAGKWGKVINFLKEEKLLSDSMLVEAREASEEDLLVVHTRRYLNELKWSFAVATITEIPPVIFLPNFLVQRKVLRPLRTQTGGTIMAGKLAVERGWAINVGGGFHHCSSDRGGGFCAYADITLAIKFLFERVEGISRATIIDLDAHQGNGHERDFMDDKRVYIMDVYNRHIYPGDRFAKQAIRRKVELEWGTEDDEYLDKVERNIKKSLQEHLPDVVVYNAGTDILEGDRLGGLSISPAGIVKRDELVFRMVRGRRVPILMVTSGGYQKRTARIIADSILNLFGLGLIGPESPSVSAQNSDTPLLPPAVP
The target of a further data set is HDAC6 (Homo sapiens (Human), UniProt Q9UBN7). Kind of data set: HDAC6 electrophoretic mobility shift assay. As to conditions: for IC50: mobility shift assay. The data set is classed as biochemical.
Chain of HDAC6 (Q9UBN7 whole entry, species assumed): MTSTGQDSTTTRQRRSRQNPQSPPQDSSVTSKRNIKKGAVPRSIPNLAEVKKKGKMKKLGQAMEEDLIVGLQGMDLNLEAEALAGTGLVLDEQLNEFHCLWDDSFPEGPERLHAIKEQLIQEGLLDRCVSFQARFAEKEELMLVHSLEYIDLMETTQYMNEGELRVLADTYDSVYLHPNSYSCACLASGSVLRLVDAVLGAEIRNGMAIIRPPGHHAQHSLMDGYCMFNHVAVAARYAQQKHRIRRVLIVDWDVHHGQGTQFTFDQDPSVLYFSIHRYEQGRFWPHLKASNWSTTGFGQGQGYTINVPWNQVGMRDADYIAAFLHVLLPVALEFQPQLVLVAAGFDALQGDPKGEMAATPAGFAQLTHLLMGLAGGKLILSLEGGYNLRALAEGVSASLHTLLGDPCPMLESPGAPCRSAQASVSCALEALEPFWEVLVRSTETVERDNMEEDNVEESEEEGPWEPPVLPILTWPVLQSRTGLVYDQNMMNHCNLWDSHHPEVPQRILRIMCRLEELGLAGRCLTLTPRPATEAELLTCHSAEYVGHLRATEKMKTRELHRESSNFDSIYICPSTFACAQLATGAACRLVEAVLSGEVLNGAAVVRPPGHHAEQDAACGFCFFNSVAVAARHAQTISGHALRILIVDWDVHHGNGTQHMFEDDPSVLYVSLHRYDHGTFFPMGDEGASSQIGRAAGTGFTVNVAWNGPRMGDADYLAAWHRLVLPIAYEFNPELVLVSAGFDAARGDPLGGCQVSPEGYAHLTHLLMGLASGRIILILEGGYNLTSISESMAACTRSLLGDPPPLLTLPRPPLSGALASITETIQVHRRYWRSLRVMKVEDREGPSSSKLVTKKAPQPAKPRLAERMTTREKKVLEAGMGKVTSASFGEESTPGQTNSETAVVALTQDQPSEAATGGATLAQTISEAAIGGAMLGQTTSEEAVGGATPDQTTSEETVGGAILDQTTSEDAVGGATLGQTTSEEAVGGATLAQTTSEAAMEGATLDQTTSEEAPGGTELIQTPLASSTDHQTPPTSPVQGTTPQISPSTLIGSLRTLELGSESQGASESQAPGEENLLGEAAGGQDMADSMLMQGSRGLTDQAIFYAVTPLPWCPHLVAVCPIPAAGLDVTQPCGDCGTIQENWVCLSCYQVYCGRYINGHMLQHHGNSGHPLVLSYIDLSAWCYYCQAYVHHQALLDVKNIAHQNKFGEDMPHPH
Where [4] appears, read: Table 3, mean of at least two runs, read-out: HDAC 6 IC50.
[5] abbreviates: Table 3, mean of at least two runs, read-out: HDAC 11 IC50.

T1 sequence (Q96DB2 whole entry): as the sequence (Q96DB2 whole entry) above

The term IC50 denotes the point on the concentration scale where inhibition reaches its midpoint. Turning to `Cc1nc(N2Cc3cccc(C(=O)NO)c3C2)[nH]c1C.Cl` [Compound 1-2, 2-(4,5-dimethyl-1H-imidazol-2-yl)-N-hydroxyisoindoline-4-carboxamide hydrochloride], the IC50 at full-length human HDAC11 [1] was above 1000 nM; at full-length human HDAC11 [2] (Table 5, read-out: HDAC11 IC50) it was above 1000 nM. The “HDAC11 potency, in words” value at full-length human HDAC11 [2] was “loss of potency”. Further, in data set [3] (Table 5), the microsomal CLint is 51 to 100 µL/min/mg. In addition, the “microsomal stability, in words” value in data set [3] was “loss of potency and microsomal stability”. At HDAC11, the LipE entry is “++ (indicates 5.5<LipE≤6.5)”.

Take `O=C(NO)c1ccc2c(c1)CN(c1nc3ccccc3[nH]1)CC2` [Compound 50-4]: the results for the IC50 on HDAC6 (setting [4]) and on full-length human HDAC11 [2] (setting [5]) were below 500 nM and above 2000 nM, respectively.

In the case of `O=C(NO)c1cccc2c1CN(c1nc3ccccc3[nH]1)CC2` [Compound 50-6], the IC50 was below 500 nM at HDAC6 (setting [4]) and above 2000 nM at full-length human HDAC11 [2] (setting [5]). For the same molecule, the “loss in potency vs. HDAC6” value on HDAC6 (relative to initial lead 50-4) is 20 fold. Further, the “loss in activity vs. HDAC11” value at full-length human HDAC11 [2] (relative to initial lead 50-4) came out at 2 fold.

For `O=C(NO)c1cccc2c1CN(c1ccc(C(F)(F)F)cn1)C2` [Compound 45-1, N-hydroxy-2-(5-(trifluoromethyl)pyridin-2-yl)isoindoline-4-carboxamide], the IC50 is below 500 nM on full-length human HDAC11 [1] and below 500 nM on full-length human HDAC11 [2] (Table 5, read-out: HDAC11 IC50). Further, the “HDAC11 potency, in words” value at full-length human HDAC11 [2] is reported as “improved potency”. The molecule further came in with a microsomal CLint in data set [3] (Table 5) of 51 to 100 µL/min/mg. Moreover, the “microsomal stability, in words” value in data set [3] is given as “significant loss of microsomal stability”. On HDAC11, the LipE entry is given as “++ (indicates 5.5<LipE≤6.5)”.

On to `Cl.O=C(NO)c1cccc2c1CN(c1nc3c([nH]1)CCCC3)C2` [Compound 1-4, N-hydroxy-2-(4,5,6,7-tetrahydro-1H-benzo[d]imidazol-2-yl)isoindoline-4-carboxamide hydrochloride], for which the IC50 at full-length human HDAC11 [1] is above 1000 nM; at full-length human HDAC11 [2] (Table 5, read-out: HDAC11 IC50), above 1000 nM. Also, the “HDAC11 potency, in words” value at full-length human HDAC11 [2] is listed as “loss of potency”. In addition, the microsomal CLint in data set [3] (Table 5) is above 100 µL/min/mg. Besides, in data set [3], the “microsomal stability, in words” value is “loss of potency and microsomal stability”. Also, the LipE entry on HDAC11 is recorded as “++ (indicates 5.5<LipE≤6.5)”.

For `O=C(NO)c1cccc2c1CN(c1nc3ccccc3s1)C2` [Compound 7-4, 2-(benzo[d]thiazol-2-yl)-N-hydroxyisoindoline-4-carboxamide], the IC50 is below 500 nM on full-length human HDAC11 [1] and below 500 nM at full-length human HDAC11 [2] (Table 5, read-out: HDAC11 IC50). Also, at full-length human HDAC11 [2], the “HDAC11 potency, in words” value is listed as “improved potency”. For the same molecule, in data set [3] (Table 5), the microsomal CLint is above 100 µL/min/mg. Also, the “microsomal stability, in words” value in data set [3] was “significant loss of microsomal stability”. Further, the LipE entry on HDAC11 is on record as “+ (indicates LipE≤5.5)”.

In the case of `O=C(NO)c1cccc2c1CN(c1nc3ccccc3o1)C2` [Compound 15-1, 2-(benzo[d]oxazol-2-yl)-N-hydroxyisoindoline-4-carboxamide], the IC50 at full-length human HDAC11 [1] is below 500 nM; at full-length human HDAC11 [2] (Table 5, read-out: HDAC11 IC50), below 500 nM. Further, the “HDAC11 potency, in words” value on full-length human HDAC11 [2] is “improved potency”. Moreover, in data set [3] (Table 5), the microsomal CLint was above 100 µL/min/mg. Besides, in data set [3], the “microsomal stability, in words” value is “significant loss of microsomal stability”. Also, the LipE entry at HDAC11 is given as “+++ (indicates a LipE>6.5)”.

For `O=C(NO)c1cccc2c1CN(c1nc3ccccc3[nH]1)C2` [Compound 1-6, 2-(1H-benzo[d]imidazol-2-yl)-N-hydroxyisoindoline-4-carboxamide], the IC50 on HDAC6 (Table 4, read-out: HDAC6 IC50) was above 1000 nM. For the same molecule, in data set [3] (Table 4, read-out: m-CL-int), the microsomal CLint was below 50 µL/min/mg. Also, the m-CLint result in data set [3] (Table 5) is on record as “+++ (indicates a m-CLint below 50 μL/min/mg)”. Besides, the “microsomal stability, in words” value in data set [3] is “significant microsomal stability”.

For `Cl.O=C(NO)c1cccc2c1CN(c1ccc3ccccc3n1)C2` [Compound 7-2, N-hydroxy-2-(quinolin-2-yl)isoindoline-4-carboxamide hydrochloride], the IC50 at full-length human HDAC11 [1] is below 500 nM; on full-length human HDAC11 [2] (Table 5, read-out: HDAC11 IC50) it was below 500 nM. The “HDAC11 potency, in words” value on full-length human HDAC11 [2] was “improved potency”. Further, in data set [3] (Table 5), the microsomal CLint fell in the range of 51 to 100 µL/min/mg. Also, the “microsomal stability, in words” value in data set [3] is recorded as “significant loss of microsomal stability”. Further, on HDAC11, the LipE entry is given as “+ (indicates LipE≤5.5)”.

Turning to `CC1(C)c2cccc(C(=O)NO)c2CN1c1nc2c(o1)CC(C(F)(F)F)CC2` (stereo not drawn) [Compound 19-2, N-hydroxy-1,1-dimethyl-2-(6-(trifluoromethyl)-4,5,6,7-tetrahydrobenzo[d]oxazol-2-yl)isoindoline-4-carboxamide], on full-length human HDAC11 [1], the IC50 is below 500 nM.

Turning to `O=C(NO)c1cccc2[nH]c(-c3cnc(C(F)(F)F)cn3)cc12` [Compound 37-4, N-hydroxy-2-(5-(trifluoromethyl)pyrazin-2-yl)-1H-indole-4-carboxamide], the IC50 on full-length human HDAC11 [1] is below 500 nM.

On to `CC1(C)c2cccc(C(=O)NO)c2CN1c1nc2ccc(C(F)(F)F)cc2o1` [Compound 18-3, N-hydroxy-1,1-dimethyl-2-(6-(trifluoromethyl)benzo[d]oxazol-2-yl)isoindoline-4-carboxamide], for which the half-maximal inhibitory concentration (IC50) at full-length human HDAC11 [1] is below 500 nM.

Consider `O=C(NO)c1cccc2c1CN(c1nc3ccc(C(F)(F)F)cc3[nH]1)C2` [Compound 12-1, N-hydroxy-2-(6-(trifluoromethyl)-1H-benzo[d]imidazol-2-yl)isoindoline-4-carboxamide], for which the half-inhibitory concentration (IC50) on full-length human HDAC11 [1] was below 500 nM; at full-length human HDAC11 [2] (Table 5, read-out: HDAC11 IC50) it was below 500 nM. Further, the “HDAC11 potency, in words” value on full-length human HDAC11 [2] was “significant increase in both potency and LipE”. For the same molecule, the microsomal CLint in data set [3] (Table 5) was above 100 µL/min/mg. Also, the “microsomal stability, in words” value in data set [3] is “loss of microsomal stability”. Also, on HDAC11, the LipE entry is “++ (indicates 5.5<LipE≤6.5)”.

Regarding `O=C(NO)c1cccc2c1CN(c1nc3c([nH]1)CC(C(F)(F)F)CC3)C2` (stereo not drawn) [Compound 1-1, N-hydroxy-2-(5-(trifluoromethyl)-4,5,6,7-tetrahydro-1H-benzo[d]imidazol-2-yl)isoindoline-4-carboxamide], at full-length human HDAC11 [1], the IC50 is below 500 nM.

`CC1(C)c2cccc(C(=O)NO)c2N[C@@H]1c1cnc(C(F)(F)F)cn1` [Compound 40-4, (S)-N-hydroxy-3,3-dimethyl-2-(5-(trifluoromethyl)pyrazin-2-yl)indoline-7-carboxamide]: the IC50 at full-length human HDAC11 [1] was above 1000 nM.

As for `O=C(NO)c1cccc2c1CN(c1ccc3ncccc3n1)C2` [Compound 7-3, N-hydroxy-2-(1,5-naphthyridin-2-yl)isoindoline-4-carboxamide], on full-length human HDAC11 [1], the IC50 was above 1000 nM.

With `CC1(C)c2cccc(C(=O)NO)c2N[C@H]1c1cnc(C(F)(F)F)cn1` [Compound 40-3, (R)-N-hydroxy-3,3-dimethyl-2-(5-(trifluoromethyl)pyrazin-2-yl)indoline-7-carboxamide], the half-inhibitory concentration (IC50) on full-length human HDAC11 [1] is below 500 nM.

`CC1(C)c2cccc(C(=O)NO)c2CN1c1ccc2ccc(C(F)(F)F)cc2n1` [Compound 23-2, N-hydroxy-1,1-dimethyl-2-(7-(trifluoromethyl)quinolin-2-yl)isoindoline-4-carboxamide]: the IC50 on full-length human HDAC11 [1] is 500 to 1000 nM.

Consider `CC1(C)c2cccc(C(=O)NO)c2CN1c1nc2ncc(C(F)(F)F)cc2o1` [Compound 26-2, N-hydroxy-1,1-dimethyl-2-(6-(trifluoromethyl)oxazolo[4,5-b]pyridin-2-yl)isoindoline-4-carboxamide], for which the IC50 on full-length human HDAC11 [1] is below 500 nM.

Consider `CC1(C)CCc2nc(N3Cc4cccc(C(=O)NO)c4C3)[nH]c2C1` [Compound 1-5, 2-(5,5-dimethyl-4,5,6,7-tetrahydro-1H-benzo[d]imidazol-2-yl)-N-hydroxyisoindoline-4-carboxamide hydrochloride], for which the IC50 on full-length human HDAC11 [1] lay within 500 to 1000 nM.

Consider `O=C(NO)c1ccc2c(c1)CCN(c1nc3ccccc3[nH]1)C2` [Compound 50-5], for which the IC50 on HDAC6 (setting [4]) is below 500 nM; on full-length human HDAC11 [2] (setting [5]), above 2000 nM. Besides, on full-length human HDAC11 [2], the “HDAC11 potency, in words” value is listed as “loss of HD AC 11 potency”.

For the molecule `O=C(NO)c1cccc2c1CN(c1nc3c([nH]1)CNCC3)C2` [Compound 13-1, N-hydroxy-2-(4,5,6,7-tetrahydro-3H-imidazo[4,5-c]pyridin-2-yl)isoindoline-4-carboxamide], at full-length human HDAC11 [1], the IC50 was above 1000 nM.
